Results reported in patent US7951232B2, “Surface coating compositions and methods” (Elevance Renewable Sciences, Inc., priority 2006, dated 2011).

What was measured:
[1] = tested on: Pseudomonas aeroginosa, ATCC 15442; test: Time-Kill Procedure (ASTM), rate of kill; format: cell-based, Pseudomonas aeruginosa
Method: The rate of kill for these organisms upon exposure to 9-decenoic acid was determined using the American Society for Testing and Materials (ASTM) procedure entitled “Standard Test Method for the Assessment of Microbiocidal Activity of Test Materials Using a Time-Kill Procedure”, October 1998. This procedure incorporates the recommendations described in the “Manual of Clinical Microbiology,”5th ed., edited by A. B. Balows et al., ASM, Washington, and is directed by the Federal Register, June 1994.
Stock cultures were transferred into TSB and incubated for 18-24 hours at 37±2° C. A second transfer was made onto TSA plates and were incubated for 18-24 hours at 37±2° C. The plates were removed from incubation and the bacterial growth washed from the agar surface using Butterfield's Phosphate Buffered Dilution Water (PBDW). The bacterial suspension was adjusted to contain approximately 10^8 Colony Forming Units (CFU)/ml with PBDW using spectrophometric methods extant in the laboratory.
The concentrated 9-decenoic acid was diluted 1:40 in filter sterilized isopropanol to yield a 2.5% stock solution. Subsequent dilutions to the 9-decenoic acid stock solutions were made with sterile Deionized Water (DI) to achieve concentrations of 0.1%, 0.05%, 0.01%, and 0.001%. The pH was determined for each dilution; pH values ranged from 4.4-4.1. Additionally, the 9-decenoic acid stock solution was adjusted to pH 7 with 1 N NaOH and serially diluted with sterile DI to achieve concentrations of 1.0%, 0.75% and 0.5%.
Compliant with the ASTM procedure cited, for each challenge microorganism a 9.9 ml aliquot of the prepared 9-decenoic acid suspension was added to a sterile tube. A 0.1 ml aliquot of the standardized inoculum was added to the 9-decenoic acid solution representing the start of the test exposure. The inoculated 9-decenoic acid solution was immediately mixed thoroughly. The inoculated suspension was held at room temperature for 0.5, 2, 5, 7 and 10 minute exposure times for tests run at ˜pH 4. The pH 7 tests were held at room temperature for 0.5 and 2 minutes.
At each exposure sample time, a 1.0 ml aliquot of the inoculated 9-decenoic acid suspension was transferred to 9.0 ml of D/E Neutralizing Broth. Additional ten-fold serial dilutions were made in PBDW and plated in duplicate on TSA. All plates were incubated for 48 hours at 37±2° C. and visually examined for growth. The plates are enumerated, recorded and log kill determined for each time point.
The following study controls were conducted: culture purity, neutralizer sterility, initial suspension population, test population, neutralization verification and a negative control using isopropanol. Culture purity was verified by performing a streak plate for isolated colonies on the each culture used. All cultures were determined to be pure based on consistent colony morphology typical for the test organism. The neutralizer sterility was confirmed by no growth in an incubated sample.
The population of the initial and test culture were determined by serial dilution, plating and enumerating after incubation. The initial suspension were determined to be ≧10^4 CFU/ml. The test culture population was used for calculation of the log reduction achieved at each time point.
Neutralization effectiveness was verified by a filtration test. For each organism, four tubes were prepared with 9 ml D/E Neutralizing Broth and fewer than 100 CFU/ml of the organism. A 1.0 ml aliquot of prepared 9-decenoic acid was added to each tube. Immediately, the entire contents of 2 tubes were filtered through a filtration apparatus and rinsed with sterile diluent. The remaining 2 tubes were held at room temperature for 30 minutes and then the entire contents were filtered using the same procedure. The filters were aseptically transferred to TSA plates and incubated for 48 hours at 37±2° C. and visually examined for growth.
This control was inoculated, subcultured and incubated as in the test procedure.

[2] = tested on: Cladosporium cladosporiodes ATCC 16022; test: Dry film preservative test, growth on PDA agar surface; format: cell-based
Method: (§1) The efficacy of 9-decenoic acid and the methyl ester of 9-decenoic acid as a dry film preservative was determined through the incubation of Trichoderma virens ATCC 9645, Cladosporium cladosporiodes ATCC 16022 and Aureobasidium pullulans ATCC 12536 in the presence of varying concentrations of 9-decenoic acid or the methyl ester of 9-decenoic acid on an agar surface.
(§2) Fungal spores were hydrated overnight in 0.1% Tween 80 and then plated on Potato Dextrose Agar (PDA) and incubated at 25-30° C. for 6 days. The spores were washed from the surface with 5 mls of 0.1% Tween 80 and enumerated.
(§3) PDA plates with prepared according to the manufactures instructions through sterilization. The agar was tempered to approximately 50° C. and filter sterilized 9-decenoic acid was added to achieve concentrations of 0.1, 0.5 and 1.0% in the agar. Additionally, one concentration of the methyl ester of 9-decenoic acid (0.5%) was also prepared. The agar was thoroughly mixed and poured into sterile petri plates and allowed to solidify.
(§4) The agar plates were inoculated with the spore solution to achieve 10^2 spores/plate. The plates were incubated at 25-30° C. in Ziploc bags with a wet paper towel to keep the moisture level high. The plates were examined for growth after 4, 7, 16, 24 and 31 days. The percent coverage of growth on the agar surface was recorded at each sample point.

[3] = tested on: Trichoderma virens ATCC 9645; test: as above; format: cell-based
Method: as §1, §2, §3, §4

C=CCCCCCCCC(=O)O [9-decenoic acid]
Log reduction of organisms after exposure ([1]; 0.01%, pH 4.4, exposure 0.5 minutes): >6.1 log
Log reduction of organisms after exposure ([1]; 0.01%, pH 4.4, exposure 2 minutes): >6.1 log
Log reduction of organisms after exposure ([1]; 0.01%, pH 4.4, exposure 5 minutes): >6.1 log
Log reduction of organisms after exposure ([1]; 0.01%, pH 4.4, exposure 7 minutes): >6.1 log
Log reduction of organisms after exposure ([1]; 0.01%, pH 4.4, exposure 10 minutes): >6.1 log
Log reduction of organisms after exposure ([1]; 0.05%, pH 4.1, exposure 0.5 minutes): >6.1 log
Log reduction of organisms after exposure ([1]; 0.05%, pH 4.1, exposure 2 minutes): >6.1 log
Log reduction of organisms after exposure ([1]; 0.05%, pH 4.1, exposure 5 minutes): >6.1 log
Log reduction of organisms after exposure ([1]; 0.05%, pH 4.1, exposure 7 minutes): >6.1 log
Log reduction of organisms after exposure ([1]; 0.05%, pH 4.1, exposure 10 minutes): >6.1 log
Log reduction of organisms after exposure ([1]; 0.1%, pH 4.1, exposure 0.5 minutes): >6.1 log
Log reduction of organisms after exposure ([1]; 0.1%, pH 4.1, exposure 2 minutes): >6.1 log
Log reduction of organisms after exposure ([1]; 0.1%, pH 4.1, exposure 5 minutes): >6.1 log
Log reduction of organisms after exposure ([1]; 0.1%, pH 4.1, exposure 7 minutes): >6.1 log
Log reduction of organisms after exposure ([1]; 0.1%, pH 4.1, exposure 10 minutes): >6.1 log
Percentage coverage of agar surface ([2]; 0.1% in PDA agar, 4 days): 0%
Percentage coverage of agar surface ([2]; 0.1% in PDA agar, 7 days): 0%
Percentage coverage of agar surface ([2]; 0.1% in PDA agar, 16 days): 0%
Percentage coverage of agar surface ([2]; 0.1% in PDA agar, 24 days): 0%
Percentage coverage of agar surface ([2]; 0.1% in PDA agar, 31 days): 0%
Percentage coverage of agar surface ([2]; 0.5% in PDA agar, 4 days): 0%
Percentage coverage of agar surface ([2]; 0.5% in PDA agar, 7 days): 0%
Percentage coverage of agar surface ([2]; 0.5% in PDA agar, 16 days): 0%
Percentage coverage of agar surface ([2]; 0.5% in PDA agar, 24 days): 0%
Percentage coverage of agar surface ([2]; 0.5% in PDA agar, 31 days): 0%
Percentage coverage of agar surface ([2]; 1.0% in PDA agar, 4 days): 0%
Percentage coverage of agar surface ([2]; 1.0% in PDA agar, 7 days): 0%
Percentage coverage of agar surface ([2]; 1.0% in PDA agar, 16 days): 0%
Percentage coverage of agar surface ([2]; 1.0% in PDA agar, 24 days): 0%
Percentage coverage of agar surface ([2]; 1.0% in PDA agar, 31 days): 0%
effectiveness as dry film preservative ([2]; at 0.1% for up to 31 days): effective
Percentage coverage of agar surface ([3]; 0.1% in PDA agar, 4 days): 0%
Percentage coverage of agar surface ([3]; 0.1% in PDA agar, 7 days): 0%
Percentage coverage of agar surface ([3]; 0.1% in PDA agar, 16 days): 0%
Percentage coverage of agar surface ([3]; 0.1% in PDA agar, 24 days): 0%
Percentage coverage of agar surface ([3]; 0.1% in PDA agar, 31 days): 0%
Percentage coverage of agar surface ([3]; 0.5% in PDA agar, 4 days): 0%
Percentage coverage of agar surface ([3]; 0.5% in PDA agar, 7 days): 0%
Percentage coverage of agar surface ([3]; 0.5% in PDA agar, 16 days): 0%
Percentage coverage of agar surface ([3]; 0.5% in PDA agar, 24 days): 0%
Percentage coverage of agar surface ([3]; 0.5% in PDA agar, 31 days): 0%
Percentage coverage of agar surface ([3]; 1.0% in PDA agar, 4 days): 0%
Percentage coverage of agar surface ([3]; 1.0% in PDA agar, 7 days): 0%
Percentage coverage of agar surface ([3]; 1.0% in PDA agar, 16 days): 0%
Percentage coverage of agar surface ([3]; 1.0% in PDA agar, 24 days): 0%
Percentage coverage of agar surface ([3]; 1.0% in PDA agar, 31 days): 0%
effectiveness as dry film preservative ([3]; at 0.1% for up to 31 days): effective
